Like-named read-outs stand apart in the source and are kept apart here. One block for each molecule: values may come before it.
Assays:
[1] = target: T1, calpain II (m calpain) (Homo sapiens, UniProt P17655); test: BODIPY-casein fluorescence-based enzyme assay, calpain II / m-calpain; type: biochemical; details: BODIPY-casein substrate
T1 sequence (P17655 1-700): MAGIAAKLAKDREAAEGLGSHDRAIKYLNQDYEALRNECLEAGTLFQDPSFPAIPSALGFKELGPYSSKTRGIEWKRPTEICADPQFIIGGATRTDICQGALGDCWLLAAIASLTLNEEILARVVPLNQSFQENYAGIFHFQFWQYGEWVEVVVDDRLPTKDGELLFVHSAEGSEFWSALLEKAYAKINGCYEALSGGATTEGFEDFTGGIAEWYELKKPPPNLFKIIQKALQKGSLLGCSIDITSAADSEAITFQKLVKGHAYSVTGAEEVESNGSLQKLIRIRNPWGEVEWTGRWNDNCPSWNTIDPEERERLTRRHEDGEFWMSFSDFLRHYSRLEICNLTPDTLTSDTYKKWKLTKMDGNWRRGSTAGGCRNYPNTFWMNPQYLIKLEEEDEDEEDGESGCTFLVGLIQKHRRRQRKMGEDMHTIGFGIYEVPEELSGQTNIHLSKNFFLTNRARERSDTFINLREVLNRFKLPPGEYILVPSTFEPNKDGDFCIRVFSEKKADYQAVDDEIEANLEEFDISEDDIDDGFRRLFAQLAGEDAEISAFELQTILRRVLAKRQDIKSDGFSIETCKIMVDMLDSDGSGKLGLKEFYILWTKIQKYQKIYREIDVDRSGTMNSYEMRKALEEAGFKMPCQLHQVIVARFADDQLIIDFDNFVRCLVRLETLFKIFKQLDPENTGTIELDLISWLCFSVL
T1 sequence (P04632 1-268 partner): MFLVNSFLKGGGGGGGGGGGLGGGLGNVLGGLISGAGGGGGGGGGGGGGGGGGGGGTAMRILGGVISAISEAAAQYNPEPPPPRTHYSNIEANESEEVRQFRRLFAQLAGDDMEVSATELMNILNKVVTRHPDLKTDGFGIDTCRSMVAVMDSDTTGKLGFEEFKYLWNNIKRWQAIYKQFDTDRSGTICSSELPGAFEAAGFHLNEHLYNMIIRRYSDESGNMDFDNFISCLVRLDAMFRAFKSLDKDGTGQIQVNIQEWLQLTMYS
Procedure: (§1) The inhibitors were assayed against several enzymes using a BODIPY-casein substrate in the fluorescence-based assay procedure of V. F. Thompson, S. Saldana, J. Cong and D. E. Goll, Anal. Biochem. 2000, 279, 170.
A number of the compounds were assayed against m-calpain using a BODIPY-casein substrate in the fluorescence-based assay procedure of V. F. Thompson, S. Saldana, J. Cong and D. E. Goll, Anal. Biochem. 2000, 279, 170.

[2] = rcm bond, 1,1,2-trichloroethane
[3] = target: α-chymotrypsin (Bos taurus, UniProt P00766); test: BODIPY-casein fluorescence-based enzyme assay, α-chymotrypsin; type: biochemical; details: BODIPY-casein substrate
[4] = target: T2, papain (Carica papaya, UniProt P00784); test: BODIPY-casein fluorescence-based enzyme assay, papain; type: biochemical; details: BODIPY-casein substrate
T2 sequence (P00784 134-345): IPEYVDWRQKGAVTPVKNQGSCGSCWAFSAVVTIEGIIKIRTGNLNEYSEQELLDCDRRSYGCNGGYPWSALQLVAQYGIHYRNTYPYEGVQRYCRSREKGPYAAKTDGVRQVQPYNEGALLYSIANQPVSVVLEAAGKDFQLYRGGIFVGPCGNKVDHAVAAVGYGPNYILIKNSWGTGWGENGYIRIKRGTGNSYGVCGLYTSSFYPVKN
Procedure: as §1

[5] = target: cathepsin B (Homo sapiens, UniProt P07858); test: BODIPY-casein fluorescence-based enzyme assay, cathepsin B; type: biochemical; details: BODIPY-casein substrate
[6] = target: T3, calpain I (μ calpain) (Homo sapiens, UniProt P07384); test: BODIPY-casein fluorescence-based enzyme assay, calpain I; type: biochemical; details: BODIPY-casein substrate
T3 sequence (P07384 1-714): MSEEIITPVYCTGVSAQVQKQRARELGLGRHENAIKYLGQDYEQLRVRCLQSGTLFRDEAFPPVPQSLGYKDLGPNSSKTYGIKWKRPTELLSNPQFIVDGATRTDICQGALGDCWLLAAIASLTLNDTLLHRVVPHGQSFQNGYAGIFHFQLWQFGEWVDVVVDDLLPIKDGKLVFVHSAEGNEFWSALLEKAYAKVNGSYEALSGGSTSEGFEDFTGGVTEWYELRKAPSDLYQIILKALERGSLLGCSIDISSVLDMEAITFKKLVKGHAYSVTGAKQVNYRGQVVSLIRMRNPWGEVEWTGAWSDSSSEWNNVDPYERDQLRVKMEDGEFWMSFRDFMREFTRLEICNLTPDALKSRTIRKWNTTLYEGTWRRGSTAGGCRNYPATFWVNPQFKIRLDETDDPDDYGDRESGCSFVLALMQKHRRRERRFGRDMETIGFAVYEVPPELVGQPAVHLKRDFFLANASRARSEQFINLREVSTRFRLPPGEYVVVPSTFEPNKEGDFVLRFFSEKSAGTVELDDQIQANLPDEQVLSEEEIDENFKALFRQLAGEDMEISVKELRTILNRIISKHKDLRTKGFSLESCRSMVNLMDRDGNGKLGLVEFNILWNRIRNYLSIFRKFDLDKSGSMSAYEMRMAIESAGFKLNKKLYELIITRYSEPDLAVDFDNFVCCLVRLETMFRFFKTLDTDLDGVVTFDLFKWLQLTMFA
T3 sequence (P04632 1-268 partner): T1 sequence (P04632 1-268 partner)

[7] = Table 3, read-out: IC50 against m-calpain
[8] = 19-membered ring, Grubbs II (3 x 0.10 equiv), microwave, 10.0 mM
[9] = Table 2, read-out: IC50 calpain II (m calpain)

IC50 [1, 7]: 930 nM
Molecule: CC(C)C[C@@H]1NC(=O)[C@@H](NS(=O)(=O)c2ccc(F)cc2)Cc2ccc(cc2)OCCCC[C@@H](CO)NC1=O [Compound 16, 4-Fluoro-N-((7S,10S,13S)-7-hydroxymethyl-10-isobutyl-9,12-dioxo-2-oxa-8,11-diaza-bicyclo-[13.2.2]nonadeca-1(18),15(19),16-trien-13-yl)-benzenesulfonamide]

Molecule: (E/Z)-15S-tert-Butoxycarbonylamino-12S-isobutyl-11,14-dioxo-2-oxa-2-thia-10,13-diaza-bicyclo[15.2.2]heneicosa-1(20),4,17(21),18-tetraene-9R-carboxylic acid methyl ester
ring closure, isolated yield [2, 8]: 40%

IC50 [1, 9]: 180 nM | IC50 [1, 7]: 180 nM | IC50 [3]: > 50000 nM | IC50 [4]: > 50000 nM | IC50 [5]: 770 nM | IC50 [6]: 170 nM
Molecule: CC(C)C[C@@H]1NC(=O)[C@@H](NC(=O)OCc2ccccc2)Cc2ccc(cc2)OCCCCC[C@@H](C=O)NC1=O [Compound 28]

Molecule: (E/Z)-12S-tert-Butoxycarbonylamino-9S-isobutyl-8,11-dioxo-2-oxa-7,10-diazabicyclo[12.2.2]octadeca-1(17),4,14(18),15-tetraene-6S-carboxylic acid methyl ester
ring closure, isolated yield ([2]; 16-membered ring, Grubbs II (3 x 0.10 equiv), microwave, 10.0 mM): 48%

IC50 [1, 7]: > 50000 nM
Molecule: CC(C)C[C@@H]1NC(=O)[C@@H](NC(=O)OCc2ccccc2)Cc2ccc(cc2)OCCCC[C@@H](CNC2CC2)NC1=O [Compound 81, ((7S,10S,13S)-7-Cyclopropylaminomethyl-10-isobutyl-9,12-dioxo-2-oxa-8,11-diaza-bicyclo[13.2.2]nonadeca-1(18),15(19),16-trien-13-yl)-carbamic acid benzyl ester]

Molecule: COC(=O)[C@@H]1C/C=C/COc2ccc(cc2)C[C@H](NC(=O)OC(C)(C)C)C(=O)N[C@@H](C(C)C)C(=O)N1
ring closure, isolated yield ([2]; 17-membered ring, Grubbs II, 10.0 mM): 12%

IC50 [1, 7]: 280 nM
Molecule: CC(C)[C@@H]1NC(=O)[C@@H](NS(=O)(=O)c2ccc(F)cc2)Cc2ccc(cc2)OCCCC[C@@H](C=O)NC1=O [Compound 54, 4-Fluoro-N-((7S,10S,135)-7-formyl-10-isopropyl-9,12-dioxo-2-oxa-8,11-diaza-bicyclo[13.2.2]nonadeca-1(18),15(19),16-trien-13-yl)-benzenesulfonamide]

IC50 [1, 9]: 8900 nM | IC50 [3]: > 50000 nM | IC50 [4]: 12000 nM | IC50 [5]: 2400 nM | IC50 [6]: 35000 nM
Molecule: CC(C)C[C@@H]1NC(=O)[C@@H](NC(=O)OCc2ccccc2)Cc2ccc(cc2)OCCCC[C@@H](C(O)C#N)NC1=O (stereo partly drawn) [Compound 80, [7-(R,S)-(cyanohydroxymethyl)-10S-isobutyl-9,12-dioxo-2-oxa-8,11-diaza-bicyclo-[13.2.2]nonadeca-1(18),15(19),16-trien-13S-yl]carbamic acid benzyl ester]

Molecule: (E/Z)-15S-tert-Butoxycarbonylamino-12S-isobutyl-11,14-dioxo-2,7-dioxa-10,13-diaza-bicyclo[15.2.2]heneicosa-1(20),4,17(21),18-tetraene-9R-carboxylic acid methyl ester
ring closure, isolated yield [2, 8]: 33%

Molecule: (E/Z)-(9R,12S,15S)-15-tert-Butoxycarbonylamino-12-isopropyl-11,14-dioxo-2-oxa-7-thia-10,13-diaza-bicyclo[15.2.2]henicosa-1(20),4,17(21),18-tetraene-9-carboxylic acid methyl ester
ring closure, isolated yield ([2]; 19-membered ring, Grubbs II, 17.3 mM): 72%

IC50 [1, 7]: 2400 nM
Molecule: CC(C)[C@@H]1NC(=O)[C@@H](NS(=O)(=O)c2ccc(F)cc2)Cc2ccc(cc2)OCCCCSC[C@@H](C=O)NC1=O [Compound 58, 4-Fluoro-N-((9R,12S,15S)-9-formyl-12-isopropyl-11,14-dioxo-2-oxa-7-thia-10,13-diaza-bicyclo[15.2.2]henicosa-1(20),17(21),18-trien-15-yl)-benzenesulfonamide]

IC50 [1, 7]: 45 nM
Molecule: CC(C)C[C@@H]1NC(=O)[C@@H](NS(=O)(=O)c2ccc(F)cc2)Cc2ccc(cc2)OCCCC[C@@H](C=O)NC1=O [Compound 17, 4-Fluoro-N-((7S,10S,13S)-7-formyl-10-isobutyl-9,12-dioxo-2-oxa-8,1′-diaza-bicyclo[13.2.2]-nonadeca-1(18),15(19),16-trien-13-yl)-benzenesulfonamide]

IC50 [1, 9]: 1100 nM | IC50 [1, 7]: 1340 nM | IC50 [3]: > 50000 nM | IC50 [4]: > 50000 nM | IC50 [5]: 1100 nM | IC50 [6]: 1340 nM
Molecule: CC(C)C[C@@H]1NC(=O)[C@@H](NC(=O)OCc2ccccc2)Cc2ccc(cc2)OCCCCC[C@@H](CO)NC1=O [Compound 27]

IC50 [1, 7]: 950 nM
Molecule: CC(C)[C@@H]1NC(=O)[C@@H](NS(C)(=O)=O)Cc2ccc(cc2)OCCCC[C@@H](C=O)NC1=O [Compound 56, N-((7S,10S,13S)-7-Formyl-10-isopropyl-9,12-dioxo-2-oxa-8,11-diaza-bicyclo[13.2.2]nonadeca-1(18),15(19),16-trien-13-yl)-methanesulfonamide]

IC50 [1, 7]: 3710 nM
Molecule: CC(C)[C@@H]1NC(=O)[C@@H](NS(=O)(=O)c2ccc(F)cc2)Cc2ccc(cc2)OCCC[C@@H](C=O)NC1=O [Compound 69, 4-Fluoro-N-((6S,9S,12S)-6-formyl-9-isopropyl-8,11-dioxo-2-oxa-7,10-diaza-bicyclo[12.2.2]octadeca-1(17),14(18),15-trien-12-yl)-benzenesulfonamide]

Molecule: (E/Z)-(9S,12S,15S)-15-tert-Butoxycarbonylamino-12-isopropyl-11,14-dioxo-2,7-dioxa-10,13-diaza-bicyclo[15.2.2]henicosa-1(20),4,17(21),18-tetraene-9-carboxylic acid methyl ester
ring closure, isolated yield ([2]; 19-membered ring, Grubbs II, 12.6 mM): 23%

IC50 [1, 7]: 40 nM
Molecule: CC(C)[C@@H]1NC(=O)[C@@H](NC(=O)OCc2ccccc2)Cc2ccc(cc2)OCCCC[C@@H](C=O)NC1=O [Compound 50]

Molecule: (E/Z)-(7S,10S,13S)-13-(4-Fluoro-benzenesulfonylamino)-10-isobutyl-9,12-dioxo-2-oxa-8,11-diaza-bicyclo[13.2.2]nonadeca-1(18),4,15(19),16-tetraene-7-carboxylic acid methyl ester
ring closure, isolated yield ([2]; 17-membered ring, Grubbs II/Cy2BCl, 10.3 mM): 63%

IC50 [1, 7]: 295 nM
Molecule: CC(C)[C@@H]1NC(=O)[C@@H](NC(=O)OCc2ccccc2)Cc2ccc(cc2)OCCCCSC[C@@H](C=O)NC1=O [Compound 36]

IC50 [1, 7]: 690 nM
Molecule: CC(C)[C@@H]1NC(=O)[C@@H](NC(=O)c2ccc[nH]2)Cc2ccc(cc2)OCCCC[C@@H](C=O)NC1=O [Compound 52, 1H-Pyrrole-2-carboxylic acid ((7S,10S,13S)-7-formyl-10-isopropyl-9,12-dioxo-2-oxa-8,11-diaza-bicyclo[13.2.2]nonadeca-1(18),15(19),16-trien-13-yl)-amide]

From patent US8710178B2, “Macrocyclic cysteine protease inhibitors and compositions thereof” (Lincoln University, priority 2006, dated 2014)
